Patent US20100137303A1, “NEW COMPOUND 255” (AstraZeneca AB, priority 2008, published 2010)
Values after ≈ are worked out from the molar mass of the structure shown.

Tests used:
[1] = molecular target: T1, Msm. GyrB (Mycolicibacterium smegmatis, UniProt A0QNE0); experiment: Msmegmatis GyrB enzyme assay (ATPase, malachite green phosphate detection); format: biochemical; details: read-out: Msm_GyrB IC50
T1 construct: 15 nM Msm; GyrB, 650 μM ATP, and compound in dimethyl sulfoxide
Experimental: Compounds may be tested for inhibition of GyrB ATPase activity using an ammonium molybdate/malachite green-based phosphate detection assay (Lanzetta, P. A., L. J. Alvarez, P. S. Reinach, and O. A. Candia, 1979, 100: 95-97; Innova Biosciences malachite green detection kit). Assays can be performed in multi-well plates in 50 μl reactions containing: 50 mM HEPES buffer pH 7.7, 250 mM potassium glutamate, 200 mM potassium chloride, 2 mM magnesium chloride, 2% glycerol, 1 mM 1,4-Dithio-DL-threitol, 0.005% Brij-35, 15 nM Msm. GyrB, 650 μM ATP, and compound in dimethyl sulfoxide. Reactions can be quenched with 12.5 μl of ammonium molybdate/malachite green detection reagent (Pi color lock gold & accelerator mix; Innova Biosciences), followed by the addition of 5 μl of stabilizer (Innova Biosciences) after 5 min of incubation.

[2] = system: M. tuberculosis; experiment: Mycobacteria susceptibility testing, Microplate Alamar Blue Assay, Mtu MIC; format: cell-based, Mycobacterium tuberculosis (Mtu); details: Mycobacterium tuberculosis
[3] = system: Spn548; experiment: Bacterial susceptibility testing in liquid media, Spn548 MIC; details: Streptococcus pneumoniae, 24 h, read-out: Spn548 Mean MIC
Excerpt: (§1) Compounds may be tested for antimicrobial activity by susceptibility testing in liquid media. Compounds may be dissolved in dimethylsulfoxide and tested in 10 doubling dilutions in the susceptibility assays. The organisms used in the assay may be grown overnight on suitable agar media and then suspended in a liquid medium appropriate for the growth of the organism. The suspension can be a 0.5 McFarland and a further 1 in 10 dilution can be made into the same liquid medium to prepare the final organism suspension in 100 μL. Plates can be incubated under appropriate conditions at 37° C. for 24 hrs prior to reading.

[4] = system: Eco-tolC; experiment: Bacterial susceptibility testing in liquid media, Eco-tolC MIC; details: Escherichia coli, read-out: Eco-tolC MIC
Excerpt: as §1

T1 sequence (A0QNE0 whole entry): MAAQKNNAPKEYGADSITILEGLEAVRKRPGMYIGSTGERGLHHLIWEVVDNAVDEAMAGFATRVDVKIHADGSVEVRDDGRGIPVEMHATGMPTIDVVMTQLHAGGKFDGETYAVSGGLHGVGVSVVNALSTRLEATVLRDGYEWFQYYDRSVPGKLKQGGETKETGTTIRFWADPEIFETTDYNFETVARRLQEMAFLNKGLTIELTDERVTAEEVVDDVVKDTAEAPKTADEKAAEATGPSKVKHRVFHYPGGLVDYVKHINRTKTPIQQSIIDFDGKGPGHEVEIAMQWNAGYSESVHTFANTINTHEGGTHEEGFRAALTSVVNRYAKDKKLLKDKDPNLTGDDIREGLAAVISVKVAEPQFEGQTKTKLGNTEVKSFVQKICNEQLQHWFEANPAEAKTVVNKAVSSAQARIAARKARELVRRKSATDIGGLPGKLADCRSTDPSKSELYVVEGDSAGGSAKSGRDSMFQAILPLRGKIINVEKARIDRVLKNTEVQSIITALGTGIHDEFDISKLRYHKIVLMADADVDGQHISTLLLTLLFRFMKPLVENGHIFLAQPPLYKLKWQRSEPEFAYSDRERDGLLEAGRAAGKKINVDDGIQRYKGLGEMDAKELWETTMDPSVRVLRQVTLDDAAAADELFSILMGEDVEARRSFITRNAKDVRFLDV

## C=CCNC(=O)Nc1nc2cc(-c3cnc(OC)nc3)c(C)nc2s1 [Example 7, 1-Allyl-3-[6-(2-methoxy-pyrimidin-5-yl)-5-methyl-thiazolo [5,4-b]pyridin-2-yl]-urea]
[1]
  IC50: 239 nM
[2]
  MIC: 32 µg/mL (≈ 89.8 µM)
[3]
  MIC: 0.0625 µg/mL (≈ 0.175 µM)
[4]
  MIC: > 32 µg/mL

## C=CCNC(=O)Nc1nc2cc(-c3cncc(C(=O)OCC)c3)c(C)nc2s1 [Example 8, 5-[2-(3-Allyl-ureido)-5-methyl-thiazolo [5,4-b]pyridin-6-yl]-nicotinic acid ethyl ester]
[1]
  IC50: 151 nM
[2]
  MIC: > 32 µg/mL
[3]
  MIC: > 39.8 µg/mL
[4]
  MIC: > 39.8 µg/mL

## CCNC(=O)Nc1nc2cc(-c3cncc(C(=O)OCC)c3)cnc2s1 [Example 9, 5-[2-(3-Ethyl-ureido)-thiazolo [5,4-b]pyridin-6-yl]-nicotinic acid ethyl ester]
[1]
  IC50: 51.1 nM
[2]
  MIC: > 32 µg/mL
[3]
  MIC: 0.58 µg/mL (≈ 1.56 µM)
[4]
  MIC: > 37.1 µg/mL

## C=CCNC(=O)Nc1nc2cc(-c3cncc(C(=O)O)c3)cnc2s1 [Example 10, 5-[2-(3-Allyl-ureido)-thiazolo[5,4-b]pyridin-6-yl]-nicotinic acid]
[1]
  IC50: 185 nM
[2]
  MIC: > 16 µg/mL
[3]
  MIC: 32 µg/mL (≈ 90 µM)
[4]
  MIC: > 64 µg/mL

## CCNC(=O)Nc1nc2cc(-c3cncc(C(=O)O)c3)cnc2s1 [Example 11, 5-[2-(3-Ethyl-ureido)-thiazolo [5,4-b]pyridin-6-yl]-nicotinic acid]
[1]
  IC50: 159 nM
[2]
  MIC: 32 µg/mL (≈ 93.2 µM)
[3]
  MIC: 17.2 µg/mL (≈ 50 µM)
[4]
  MIC: > 34.3 µg/mL

## C=CCNC(=O)Nc1nc2cc(-c3cncc(C(=O)O)c3)c(C)nc2s1 [Example 12, 5-[2-(3-Allyl-ureido)-5-methylthiazolo [5,4b]pyridin-6-yl]nicotinic acid]
[1]
  IC50: 166 nM
[2]
  MIC: > 32 µg/mL
[3]
  MIC: 32 µg/mL (≈ 86.6 µM)
[4]
  MIC: > 32 µg/mL

## C=CCNC(=O)Nc1nc2cc(-c3cncc(C(=O)N(C)C)c3)c(C)nc2s1 [Example 13, 5-[2-(3-Allyl-ureido)-5-methyl-thiazolo[5,4-b]pyridin-6-yl]-N,N-dimethyl-nicotinamide]
[1]
  IC50: 644 nM
[2]
  MIC: > 32 µg/mL
[3]
  MIC: 4 µg/mL (≈ 10.1 µM)
[4]
  MIC: > 32 µg/mL

## C=CCNC(=O)Nc1nc2cc(Br)cnc2o1 [Example 14, 1-allyl-3-(6-bromooxazolo[5,4-b]pyridin-2-yl)urea]
[1]
  IC50: 24700 nM
[2]
  MIC: > 16 µg/mL
[3]
  MIC: 16 µg/mL (≈ 53.9 µM)
[4]
  MIC: 32 µg/mL (≈ 108 µM)

## C=CCNC(=O)Nc1nc2cc(-c3cccnc3)cnc2o1 [Example 15, 1-allyl-3-(6-(pyridin-3-yl)oxazolo[5,4-b]pyridin-2-yl)urea]
[1]
  IC50: 2000 nM
[2]
  MIC: > 16 µg/mL
[3]
  MIC: 16 µg/mL (≈ 54.2 µM)
[4]
  MIC: > 64 µg/mL

## C=CCNC(=O)Nc1nc2cc(-c3cnc(OC)nc3)c(C)nc2o1 [Example 16, 3-allyl-1-[6-(2-methoxypyrimidin-5-yl)-5-methyl-oxazolo[5,4-b]pyridin-2-yl]urea]
[1]
  IC50: 1610 nM
[2]
  MIC: > 32 µg/mL
[3]
  MIC: 16 µg/mL (≈ 47 µM)
[4]
  MIC: > 32 µg/mL

## C=CCNC(=O)Nc1nc2cc(-c3cnc(OC)nc3)c(OCCN(C)C)nc2s1 [Example 17, 1-allyl-3-(5-(2-(dimethylamino)ethoxy)-6-(2-methoxypyrimidin-5-yl)thiazolo[5,4-b]pyridin-2-yl)urea]
[1]
  IC50: 216 nM
[2]
  MIC: > 64 µg/mL
[3]
  MIC: 16 µg/mL (≈ 37.3 µM)
[4]
  MIC: > 64 µg/mL

## CCNC(=O)Nc1nc2cc(-c3cnc(OC)nc3)cnc2o1 [Example 18, 1-ethyl-3-[6-(2-methoxypyrimidin-5-yl)[1,3]oxazolo[5,4-b]pyridin-2-yl]urea]
[1]
  IC50: 10900 nM
[2]
  MIC: > 32 µg/mL
[3]
  MIC: > 32 µg/mL
[4]
  MIC: > 32 µg/mL

## C=CCNC(=O)Nc1nc2cc(-c3cncc(C(=O)NCCCN4CCCC4=O)c3)cnc2s1 [Example 19, N-[3-(2-oxopyrrolidin-1-yl)propyl]-5-{2-[(prop-2-en-1-ylcarbamoyl)amino][1,3]thiazolo[5,4-b]pyridin-6-yl}pyridine-3-carboxamide]
[1]
  IC50: 297 nM
[2]
  MIC: 32 µg/mL (≈ 66.7 µM)
[3]
  MIC: > 32 µg/mL
[4]
  MIC: > 32 µg/mL

## C=CCNC(=O)Nc1nc2cc(-c3cnc(OC)nc3)c(OCCN3CCCC3)nc2s1 [Example 20, 1-[6-(2-methoxypyrimidin-5-yl)-5-(2-pyrrolidin-1-ylethoxy)[1,3]thiazolo[5,4-b]pyridin-2-yl]-3-prop-2-en-1-ylurea]
[1]
  IC50: 259 nM
[2]
  MIC: > 32 µg/mL
[3]
  MIC: > 32 µg/mL
[4]
  MIC: > 32 µg/mL

## C=CCNC(=O)Nc1nc2cc(-c3cncc(C(=O)NCC4CCOCC4)c3)cnc2s1 [Example 21, 5-{2-[(prop-2-en-1-ylcarbamoyl)amino][1,3]thiazolo[5,4-b]pyridin-6-yl}-N-(tetrahydro-2H-pyran-4-ylmethyl)pyridine-3-carboxamide]
[1]
  IC50: 236 nM
[2]
  MIC: > 64 µg/mL
[3]
  MIC: > 32 µg/mL
[4]
  MIC: > 32 µg/mL

## C=CCNC(=O)Nc1nc2cc(-c3cncc(C(=O)NC)c3)cnc2s1 [Example 22, N-methyl-5-{2-[(prop-2-en-1-ylcarbamoyl)amino][1,3]thiazolo[5,4-b]pyridin-6-yl}pyridine-3-carboxamide]
[1]
  IC50: 323 nM
[2]
  MIC: > 64 µg/mL
[3]
  MIC: > 32 µg/mL
[4]
  MIC: > 32 µg/mL

## C=CCNC(=O)Nc1nc2cc(-c3cncc(C(=O)NCC)c3)cnc2s1 [Example 23, N-ethyl-5-{2-[(prop-2-en-1-ylcarbamoyl)amino][1,3]thiazolo[5,4-b]pyridin-6-yl}pyridine-3-carboxamide]
[1]
  IC50: 404 nM
[2]
  MIC: > 64 µg/mL
[3]
  MIC: > 32 µg/mL
[4]
  MIC: > 32 µg/mL

## C=CCNC(=O)Nc1nc2cc(-c3cncc(C(=O)NCCC(C)C)c3)cnc2s1 [Example 24, N-(3-methylbutyl)-5-{2-[(prop-2-en-1-ylcarbamoyl)amino][1,3]thiazolo[5,4-b]pyridin-6-yl}pyridine-3-carboxamide]
[1]
  IC50: 583 nM
[2]
  MIC: > 64 µg/mL
[3]
  MIC: > 32 µg/mL
[4]
  MIC: > 32 µg/mL

## C=CCNC(=O)Nc1nc2cc(-c3cncc(C(=O)N4CCOCC4)c3)cnc2s1 [Example 25, 1-{6-[5-(morpholin-4-ylcarbonyl)pyridin-3-yl][1,3]thiazolo[5,4-b]pyridin-2-yl}-3-prop-2-en-1-ylurea]
[1]
  IC50: 1440 nM
[2]
  MIC: > 32 µg/mL
[3]
  MIC: > 32 µg/mL
[4]
  MIC: > 32 µg/mL

## C=CCNC(=O)Nc1nc2cc(-c3cncc(C(=O)NCC(C)C)c3)cnc2s1 [Example 26, N-(2-methylpropyl)-5-{2-[(prop-2-en-1-ylcarbamoyl)amino][1,3]thiazolo[5,4-b]pyridin-6-yl}pyridine-3-carboxamide]
[1]
  IC50: 394 nM
[2]
  MIC: > 32 µg/mL
[3]
  MIC: > 32 µg/mL
[4]
  MIC: > 32 µg/mL

## C=CCNC(=O)Nc1nc2cc(-c3cc[nH]n3)c(C)nc2s1 [Example 27, 1-[5-methyl-6-(1H-pyrazol-3-yl)[1,3]thiazolo[5,4-b]pyridin-2-yl]-3-prop-2-en-1-ylurea]
[1]
  IC50: 1840 nM
[2]
  MIC: 11.3 µg/mL (≈ 36 µM)
[3]
  MIC: 2 µg/mL (≈ 6.36 µM)
[4]
  MIC: > 22.6 µg/mL

## C=CCNC(=O)Nc1nc2cc(-c3cncnc3)c(OCCOC)nc2s1 [Example 30, 1-[5-(2-methoxyethoxy)-6-pyrimidin-5-yl[1,3]thiazolo[5,4-b]pyridin-2-yl]-3-prop-2-en-1-ylurea]
[1]
  IC50: 60.3 nM
[2]
  MIC: 2 µg/mL (≈ 5.18 µM)
[3]
  MIC: 0.152 µg/mL (≈ 0.394 µM)
[4]
  MIC: 0.609 µg/mL (≈ 1.58 µM)

## C=CCNC(=O)Nc1nc2cc(-c3nc(C(=O)O)cs3)cnc2s1 [Example 31, 2-{2-[(prop-2-en-1-ylcarbamoyl)amino][1,3]thiazolo[5,4-b]pyridin-6-yl}-1,3-thiazole-4-carboxylic acid]
[1]
  IC50: 8940 nM
[2]
  MIC: > 32 µg/mL
[3]
  MIC: > 32 µg/mL
[4]
  MIC: > 32 µg/mL

## C=CCNC(=O)Nc1nc2cc(-c3cnccn3)cnc2s1 [Example 32, 1-prop-2-en-1-yl-3-(6-pyrazin-2-yl[1,3]thiazolo[5,4-b]pyridin-2-yl)urea]
[1]
  IC50: 836 nM
[2]
  MIC: > 32 µg/mL
[3]
  MIC: 32 µg/mL (≈ 102 µM)
[4]
  MIC: > 32 µg/mL

## C=CCNC(=O)Nc1nc2cc(-c3cncnc3)c(OCC(C)C)nc2s1 [Example 33, 1-[5-(2-methylpropoxy)-6-pyrimidin-5-yl[1,3]thiazolo[5,4-b]pyridin-2-yl]-3-prop-2-en-1-ylurea]
[1]
  IC50: 18.4 nM
[2]
  MIC: 1 µg/mL (≈ 2.6 µM)
[3]
  MIC: 0.0625 µg/mL (≈ 0.163 µM)
[4]
  MIC: 1 µg/mL (≈ 2.6 µM)

## C=CCNC(=O)Nc1nc2cc(-c3cncnc3)c(OCc3ccccn3)nc2s1 [Example 34, 1-prop-2-en-1-yl-3-[5-(pyridin-2-ylmethoxy)-6-pyrimidin-5-yl[1,3]thiazolo[5,4-b]pyridin-2-yl]urea]
[1]
  IC50: 28.1 nM
[2]
  MIC: 1.41 µg/mL (≈ 3.37 µM)
[3]
  MIC: 0.0625 µg/mL (≈ 0.149 µM)
[4]
  MIC: 1 µg/mL (≈ 2.38 µM)

## CCNC(=O)Nc1nc2cc(-c3cncnc3)c(OCCOC(C)C)nc2s1 [Example 35, 1-ethyl-3-{5-[2-(1-methylethoxy)ethoxy]-6-pyrimidin-5-yl[1,3]thiazolo[5,4-b]pyridin-2-yl}urea]
[1]
  IC50: 28 nM
[2]
  MIC: 0.354 µg/mL (≈ 0.879 µM)
[3]
  MIC: 0.0625 µg/mL (≈ 0.155 µM)
[4]
  MIC: 0.25 µg/mL (≈ 0.621 µM)

## CCNC(=O)Nc1nc2cc(-c3cncnc3)c(OCCC(C)C)nc2s1 [Example 37, 1-ethyl-3-[5-(3-methylbutoxy)-6-pyrimidin-5-yl[1,3]thiazolo[5,4-b]pyridin-2-yl]urea]
[1]
  IC50: 11.8 nM
[2]
  MIC: < 0.25 µg/mL
[3]
  MIC: 0.0625 µg/mL (≈ 0.162 µM)
[4]
  MIC: 0.25 µg/mL (≈ 0.647 µM)
